# Source: patent EP1534672B1, “RETINOL DERIVATIVES, THEIR USE IN THE TREATMENT OF CANCER AND FOR POTENTIATING THE EFFICACY OF OTHER CYTOTOXIC AGENTS” (priority 2002, dated 2004)
# Test system: Human Breast Adenocarcinoma Cell Line MDA-MB-231
# Experiment: Drug cytotoxicity testing (viable cell count, trypan blue exclusion, cell growth inhibition)
# Format: cell-based
# Settings: Homo sapiens, MDA-MB-231, 48 h, compound alone, final concentration 10^-7 mol/L; working solutions in MEM with 5% FBS; two days; read-out: cell growth inhibition
# Experimental: MDA-MB-231 cells were propagated in MEM culture medium with 2 mM L-glutamine, 10% heat-inactivated fetal bovine serum (FBS) and antibiotics. DU 145 cells were cultured in MEM culture medium containing 2 mM L-glutamine, 1 mM sodium pyruvate, 10% FBS and antibiotics. SKOV-3 cells were cultured in McCoy's 5A culture medium, supplemented with 1,5 mM L-glutamine, 10% FBS and antibiotics. A549 cells were cultured in Ham's F-12 culture medium with 1 mM L-glutamine, 10% FBS and antibiotics. All media and supplements were purchased from Sigma-Aldrich (St.Louis, MO, USA). Cell propagation of all lines was carried out in Falcon™ 25 cm^2 cultivation flasks (Becton Dickinson Labware).
# Drug cytotoxicity testing was carried out with using Falcon™ 96-well cultivation plates for adherent cells (Becton Dickinson Labware). These plates were seeded by cells either at 12 × 10^3 MDA-MB-231 cells/well, or at 12 × 10^3 DU 145 cells/well, or at 14 × 10^3 SKOV-3 cells/well, or at 10 × 10^3 A549 cells/well in a volume of 200 µL/well.
# The cell cultures in cultivation plates were allowed to adhere for 24 hour of incubation. On day 1 after cell seeding, 2 µL solutions of the drugs to be tested in medium with 5% FBS was added to the cultures. In the control cultures, 2 µL of medium with 5% FBS was added as solvent control. The cells were incubated for 2 consecutive days. At the end of the incubation period adherent cells were detached by trypsinization and the number of viable cells was counted using trypan blue exclusion test and a hemocytometer. All data were derived from an average of three determinations each in six replicates. The results were expressed as mean cell number ± SE and the differences between control and test series evaluated by means of Student's t-test. The drug cytotoxicity was evaluated based on the extent of cell growth inhibition. The cell growth inhibition of the tested drugs was calculated as follows: Cell growth inhibition,% = (Control-TestSeries)/(Control) × 100 [formula]
# In the case of comparative evaluation of cytotoxicity of the inventive compounds themselves and the formulation related to consecutive dilutions of their initial solutions before adding to the cultures, 2 µL solutions of the drugs to be tested in medium with 5% FBS, in normal saline and in saline with 2,3 mM CaCl2 were added to the cultures. In control cultures, 2 µL of medium with 5% FBS, normal saline and saline with 2,3 mM CaCl2 were added as solvent controls (negative controls). […] Therefore an average of negative controls was calculated. […] Therefore an average of positive controls was calculated (for each antibiotic).
row,SMILES,inhibition at 0.1 µM [%]
1,"CC1=C(/C=C/C(C)=C/C=C/C(C)=C/C(=O)N[C@@H](CCS(=O)(=O)O)C(N)=O)C(C)(C)CCC1 [compound I-3f, N-(all-trans-retinoyl)-L-homocysteic acid amide]",55.2

# Same assay, conditions: Homo sapiens, MDA-MB-231, 48 h, compound alone, final concentration 10^-8 mol/L; working solutions in MEM with 5% FBS; two days; read-out: cell growth inhibition
row,SMILES,inhibition at 0.01 µM [%]
1,"CC1=C(/C=C/C(C)=C/C=C/C(C)=C/C(=O)N[C@@H](CCS(=O)(=O)O)C(N)=O)C(C)(C)CCC1 [compound I-3f, N-(all-trans-retinoyl)-L-homocysteic acid amide]",48.7

# Same assay, conditions: Homo sapiens, MDA-MB-231, 48 h, compound alone, final concentration 10^-9 mol/L; working solutions in MEM with 5% FBS; two days; read-out: cell growth inhibition
row,SMILES,inhibition at 0.001 µM [%]
1,"CC1=C(/C=C/C(C)=C/C=C/C(C)=C/C(=O)N[C@@H](CCS(=O)(=O)O)C(N)=O)C(C)(C)CCC1 [compound I-3f, N-(all-trans-retinoyl)-L-homocysteic acid amide]",41.4

# Same assay, conditions: Homo sapiens, MDA-MB-231, compound alone 10^-7 mol/L, in A (saline with […] CaCl2); read-out: cell growth inhibition
row,SMILES,inhibition at 0.1 µM [%]
1,"CC1=C(/C=C/C(C)=C/C=C/C(C)=C/C(=O)N[C@@H](CCS(=O)(=O)O)C(N)=O)C(C)(C)CCC1 [compound I-3f, N-(all-trans-retinoyl)-L-homocysteic acid amide]",53.6

# Same assay, conditions: Homo sapiens, MDA-MB-231, compound alone 10^-7 mol/L, in B (normal saline); read-out: cell growth inhibition
row,SMILES,inhibition at 0.1 µM [%]
1,"CC1=C(/C=C/C(C)=C/C=C/C(C)=C/C(=O)N[C@@H](CCS(=O)(=O)O)C(N)=O)C(C)(C)CCC1 [compound I-3f, N-(all-trans-retinoyl)-L-homocysteic acid amide]",40.8

# Same assay, conditions: Homo sapiens, MDA-MB-231, compound alone 10^-7 mol/L; read-out: Cell growth inhibition in A compared to that in B was increased by
row,SMILES,inhibition at 0.1 µM [%]
1,"CC1=C(/C=C/C(C)=C/C=C/C(C)=C/C(=O)N[C@@H](CCS(=O)(=O)O)C(N)=O)C(C)(C)CCC1 [compound I-3f, N-(all-trans-retinoyl)-L-homocysteic acid amide]",21.6

# Same assay, conditions: Homo sapiens, MDA-MB-231, compound alone 10^-8 mol/L, in A (saline with […] CaCl2); read-out: cell growth inhibition
row,SMILES,inhibition at 0.01 µM [%]
1,"CC1=C(/C=C/C(C)=C/C=C/C(C)=C/C(=O)N[C@@H](CCS(=O)(=O)O)C(N)=O)C(C)(C)CCC1 [compound I-3f, N-(all-trans-retinoyl)-L-homocysteic acid amide]",46.8

# Same assay, conditions: Homo sapiens, MDA-MB-231, compound alone 10^-8 mol/L, in B (normal saline); read-out: cell growth inhibition
row,SMILES,inhibition at 0.01 µM [%]
1,"CC1=C(/C=C/C(C)=C/C=C/C(C)=C/C(=O)N[C@@H](CCS(=O)(=O)O)C(N)=O)C(C)(C)CCC1 [compound I-3f, N-(all-trans-retinoyl)-L-homocysteic acid amide]",32.1

# Same assay, conditions: Homo sapiens, MDA-MB-231, compound alone 10^-8 mol/L; read-out: Cell growth inhibition in A compared to that in B was increased by
row,SMILES,inhibition at 0.01 µM [%]
1,"CC1=C(/C=C/C(C)=C/C=C/C(C)=C/C(=O)N[C@@H](CCS(=O)(=O)O)C(N)=O)C(C)(C)CCC1 [compound I-3f, N-(all-trans-retinoyl)-L-homocysteic acid amide]",21.5

# Same assay, conditions: Homo sapiens, MDA-MB-231, compound alone 10^-9 mol/L, in A (saline with […] CaCl2); read-out: cell growth inhibition
row,SMILES,inhibition at 0.001 µM [%]
1,"CC1=C(/C=C/C(C)=C/C=C/C(C)=C/C(=O)N[C@@H](CCS(=O)(=O)O)C(N)=O)C(C)(C)CCC1 [compound I-3f, N-(all-trans-retinoyl)-L-homocysteic acid amide]",39

# Same assay, conditions: Homo sapiens, MDA-MB-231, compound alone 10^-9 mol/L, in B (normal saline); read-out: cell growth inhibition
row,SMILES,inhibition at 0.001 µM [%]
1,"CC1=C(/C=C/C(C)=C/C=C/C(C)=C/C(=O)N[C@@H](CCS(=O)(=O)O)C(N)=O)C(C)(C)CCC1 [compound I-3f, N-(all-trans-retinoyl)-L-homocysteic acid amide]",21.8

# Same assay, conditions: Homo sapiens, MDA-MB-231, compound alone 10^-9 mol/L; read-out: Cell growth inhibition in A compared to that in B was increased by
row,SMILES,inhibition at 0.001 µM [%]
1,"CC1=C(/C=C/C(C)=C/C=C/C(C)=C/C(=O)N[C@@H](CCS(=O)(=O)O)C(N)=O)C(C)(C)CCC1 [compound I-3f, N-(all-trans-retinoyl)-L-homocysteic acid amide]",21.9

# Same assay, conditions: compound alone 10^-7 mol/L, in B (normal saline)
row,SMILES,number of viable cells
1,"CC1=C(/C=C/C(C)=C/C=C/C(C)=C/C(=O)N[C@@H](CCS(=O)(=O)O)C(N)=O)C(C)(C)CCC1 [compound I-3f, N-(all-trans-retinoyl)-L-homocysteic acid amide]",32.8 ± 0.99 × 10^3

# Same assay, conditions: compound alone 10^-8 mol/L, in B (normal saline)
row,SMILES,number of viable cells
1,"CC1=C(/C=C/C(C)=C/C=C/C(C)=C/C(=O)N[C@@H](CCS(=O)(=O)O)C(N)=O)C(C)(C)CCC1 [compound I-3f, N-(all-trans-retinoyl)-L-homocysteic acid amide]",37.6 ± 1.52 × 10^3

# Same assay, conditions: compound alone 10^-9 mol/L, in B (normal saline)
row,SMILES,number of viable cells
1,"CC1=C(/C=C/C(C)=C/C=C/C(C)=C/C(=O)N[C@@H](CCS(=O)(=O)O)C(N)=O)C(C)(C)CCC1 [compound I-3f, N-(all-trans-retinoyl)-L-homocysteic acid amide]",43.3 ± 2.88 × 10^3

# Same assay, conditions: compound alone, final concentration 10^-7 mol/L; working solutions in MEM with 5% FBS; two days
row,SMILES,number of viable cells
1,"CC1=C(/C=C/C(C)=C/C=C/C(C)=C/C(=O)N[C@@H](CCS(=O)(=O)O)C(N)=O)C(C)(C)CCC1 [compound I-3f, N-(all-trans-retinoyl)-L-homocysteic acid amide]",25.3 ± 0.76 × 10^3

# Same assay, conditions: compound alone, final concentration 10^-8 mol/L; working solutions in MEM with 5% FBS; two days
row,SMILES,number of viable cells
1,"CC1=C(/C=C/C(C)=C/C=C/C(C)=C/C(=O)N[C@@H](CCS(=O)(=O)O)C(N)=O)C(C)(C)CCC1 [compound I-3f, N-(all-trans-retinoyl)-L-homocysteic acid amide]",29.0 ± 1.32 × 10^3

# Same assay, conditions: compound alone, final concentration 10^-9 mol/L; working solutions in MEM with 5% FBS; two days
row,SMILES,number of viable cells
1,"CC1=C(/C=C/C(C)=C/C=C/C(C)=C/C(=O)N[C@@H](CCS(=O)(=O)O)C(N)=O)C(C)(C)CCC1 [compound I-3f, N-(all-trans-retinoyl)-L-homocysteic acid amide]",33.1 ± 1.90 × 10^3

# Same assay, conditions: sodium salt, range 10^-9 to 10^-7 M
row,SMILES,cell growth inhibition in (A) compared to compound in B [%]
1,"CC1=C(/C=C/C(C)=C/C=C/C(C)=C/C(=O)N[C@@H](CCS(=O)(=O)O)C(N)=O)C(C)(C)CCC1 [compound I-3f, N-(all-trans-retinoyl)-L-homocysteic acid amide]",~22

# Same assay, conditions: sodium salt, range 10^-9 to 10^-7 M, dilution in normal saline (B)
row,SMILES,"cell growth inhibition reached on increase of the concentration, in (B) [%]"
1,"CC1=C(/C=C/C(C)=C/C=C/C(C)=C/C(=O)N[C@@H](CCS(=O)(=O)O)C(N)=O)C(C)(C)CCC1 [compound I-3f, N-(all-trans-retinoyl)-L-homocysteic acid amide]",~41

# Test system: not given
# Experiment: not given
# Settings: rat, in vivo, ip
row,SMILES,minimal lethal dose
1,"CC1=C(/C=C/C(C)=C/C=C/C(C)=C/C(=O)N[C@@H](CCS(=O)(=O)O)C(N)=O)C(C)(C)CCC1 [compound I-3f, N-(all-trans-retinoyl)-L-homocysteic acid amide]",above 100 mg/kg body weight

# Same assay, conditions: rat, in vivo, ip, 100 mg/kg
row,SMILES,mortality
1,"CC1=C(/C=C/C(C)=C/C=C/C(C)=C/C(=O)N[C@@H](CCS(=O)(=O)O)C(N)=O)C(C)(C)CCC1 [compound I-3f, N-(all-trans-retinoyl)-L-homocysteic acid amide]",did not produce mortality
